The text below walks through data of patent publication US20030161893A1, “PTPase inhibitors and methods of using the same” (priority 2001, published 2003).

One assay relates to NB4 cells. Put plainly: NB4 cell differentiation (NBT reduction, CD11b). Type of assay: cell-based, human. The procedure:
Differentiation of AML cell lines was assessed by their ability to produce superoxide as measured by reduction of NBT to formazan and by analysis of expression of CD11b surface marker by flow cytometry. For NBT reduction, each cell suspension was mixed with an equal volume of solution containing 1 mg/ml of NBT (Sigma) and 2.5 μg/ml of TPA for 30 minutes at 37° C. After incubation, cells containing the purple formazan deposits and cells devoid of NBT-reducing activity (white cells) in each sample were determined by counting 200 cells under microscope. Data is expressed as a percentage based on the following ratio: purple cells/purple+white cells. For analysis of cell surface antigens, cells were exposed to phycoerythrin (PE)-conjugated murine anti-human CD11b (DAKO Corp., Carpinteria, Calif.). Analysis of fluorescence was performed on a FACScan flow cytometer (Beckton Dickinson, Mountain View, Calif.).

The subject of a further assay is WM35 cells. Kind of assay: Cell proliferation assay (MTT), WM35 melanoma cells. It counts as cell-based, human. The procedure:
(§1) For cell proliferation assays, cells were grown in 10% FCS culture medium containing various amounts of IFNs and/or sodium stibogluconate in 96 well plates and cultured at 37° C. for 3 or 6 days as indicated. The numbers of viable cells in proliferation assays were determined by MTT assays as described in Phatak et al., J. Immunol. 167, 3391 (2001).

Another assay concerns the target T1, Flag-PRL-3 (Homo sapiens, UniProt O75365).
T1 construct: expressed in transfected cells
Kind of assay: Immunocomplex PTPase assay, Flag-PRL-3 NIH3T3 transfectants. Type of assay: cell-based. The note with it: cells treated 5 min. The protocol: Immunocomplex PTPase assays were performed to assess the effects of sodium stibogluconate on intracellular PTPases. Cells were untreated or treated with sodium stibogluconate for 5 minutes, washed with fresh medium and then lysed in cold lysis buffer (50 mM Tris, pH 7.4; 150 mM NaCl; 1% NP40; 2 mM PMSF; 20 ,g/ml of Aprotinin). The lysates were incubated with an anti-Flag antibody in immunoprecipitation assays. The immunocomplexes were collected with protein G sepharose beads (Pharmacia) and washed in cold lysis buffer for 4 times. […] 100 μL of malachite green solution (UBI) was added to each reaction prior to measurement of OD660 to quantify the amounts of free phosphate cleaved by the PTPases from the peptide substrate (Pathak et al., J. Imumol. 167, 3391 (2001)). The remaining 10% contents of individual samples were analyzed by SDS-PAGE/Western blotting to quantify the relative amounts of the phosphatase proteins. […]
The effects of sodium stibogluconate on intracellular PTPases were assessed using NIH3T3 or WM9 transfectants. […]

The subject of the next assay is C42 cells. Kind of assay: Cell proliferation assay (MTT), C42 prostate cancer cells. Type of assay: cell-based, human. The procedure: as §1
For another assay, the system named is DU145R cells. Kind of assay: Cell growth assay (MTT), DU145R cells. The note with it: day 6 culture. Type of assay: cell-based, human. The procedure:
DU145 cells were cultured in the presence of sodium stibogluconate (100 μg/ml) in 48 well plates for 3 weeks. Cells from a well containing a single colony were transferred to flasks, cultured in sodium stibogluconate-free medium for 3 weeks and used as DU145R cells for further characterization. Growth of DU145R cells in the absence or presence of sodium stibogluconate in day 6 culture was determined by MTT assays. cDNAs of the coding region of PRLs were derived by RT-PCR from DU145 and DU145R cells and sequenced using primers described below.

For a further assay, the system named is Stat1. Kind of assay: IFN-alpha-induced Stat1 tyrosine phosphorylation, WiT49-N1 cells. Type of assay: cell-based, human. The procedure:
For induction of Stat1 tyrosine phosphorylation by IFN-alpha in the absence or presence of sodium stibogluconate, cells grown in 10% FCS RPMI 1640 medium at 37° C. were stimulated with IFN-alpha (50 u/ml) for various time points and treated with or without sodium stibogluconate for 5 minutes prior to termination by lysing the cells in cold lysis buffer (1% NP-40; 50 mM Tris, pH 7.4; 100 mM NaCl; 1 mM EDTA, 10% glycerol, 10 mM sodium molybdic acid and 4 mM AEBSF).
Cell lysates were prepared by lysing cells in cold lysis buffer for 30 min and cleared by centrifuging at 14,000 rpm at 4° C. for 15 min. For SDS-PAGE, cell lysates were mixed with equal volume of 2×SDS-PAGE sample buffer, heated at 90° C. for 5 min and separated in 10% SDS-PAGE gels. Cellular proteins in SDS-PAGE gels were transferred to nitrocellulose membrane (Schleicher & Schuell, Keene, N.H.), blocked in 5% milk, probed with antibodies and detected by using an enhanced chemiluminescence kit (ECL, Amersham, Arlington Heights, Ill.).

Another assay has as its system DU145 cells. Put plainly: Cell proliferation assay (MTT), DU145 prostate cancer cells. Type of assay: cell-based, human. The protocol:
as §1
NIH3T3 (Yi, et al., Blood 85, 87 (1995)), WM9 (Forsberg, et al., Proc. Nat. Acad Sci. USA 90, 393 (1993)), DU145 (Mickey, et al., Cancer Res. 37, 4049 (1977)), LoVo (Drewinko, et al., Cancer Res. 36, 467 (1976)), HEY (Buick, et al., Cancer Res. 45, 3668 (1985)), U251 (Yoshida, et al., Cancer 50, 410 (1982)), A549 (Giard, et al., J. Natl. Cancer Inst. 51, 1417 (1973)) and SK-N-SH (Helson, et al., Cancer Res. 35, 2594 (1975)) cell lines have been described and were cultured in RPMI 1640 supplemented with 10% fetal calf serum (FCS). For measurement of sodium stibogluconate effects on cell growth in vitro, cells were cultured in the absence (−) or presence (+) of various amounts of sodium stibogluconate for 6 days with viable cells quantified by MTT assays (Mosmann, J. Imunol. Methods 65, 55 (1983)). Percentages of growth inhibition by sodium stibogluconate were calculated (+/−×%).

T1 sequence (O75365 whole entry): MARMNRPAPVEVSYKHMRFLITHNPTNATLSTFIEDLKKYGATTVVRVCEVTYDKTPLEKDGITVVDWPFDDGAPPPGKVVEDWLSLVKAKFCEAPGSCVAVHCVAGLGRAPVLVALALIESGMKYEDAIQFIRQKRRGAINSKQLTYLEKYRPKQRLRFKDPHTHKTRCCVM

Turning to `O.O.O.O.O.O.O.O.O.O=C([O-])[C@@H]1[O][Sb]2([O-])([O][Sb]34([OH])[O][C@H]([C@H](O)CO)[C@H]([O]3)[C@H](C(=O)[O-])[O]4)[O][C@H]([C@H](O)CO)[C@@H]1[O]2.[Na+].[Na+].[Na+]` [sodium stibogluconate], the “interaction with ATRA in differentiation induction” value with NB4 cells was “did not synergize with ATRA”. In the assay on NB4 cells (6 days with drug (10 or 100 μg/ml), washed, 6 days without), the “reversibility of induced NB4 differentiation after drug removal” value is reported as “not reversed”. Further, in the assay with WM35 cells, the “sensitivity of WM35 cells” value was “minimally affected”. Moreover, the “PTPase activity of anti-Flag immunocomplexes, Flag-PRL-3” value at Flag-PRL-3 is “lack of PTPase activity”. The “sensitivity of C42 cells” value in the assay on C42 cells is “highly resistant”. The “growth of DU145R cells versus parental DU145” value with DU145R cells is “growth resistance to sodium stibogluconate”. The “IFN-alpha-induced Stat1 tyrosine phosphorylation” value in the assay with Stat1 is recorded as “failed to enhance”. Besides, in the assay with DU145 cells (50 μg/ml and 100 μg/ml, day 6 culture), the “killing of DU145 cells, single agent” value is “killed all cells”. In addition, the “cell killing, DU145” value in the assay with DU145 cells (100 μg/ml, day 6) is “near-complete cell killing”. Also, the “IFN-alpha-induced growth inhibition of DU145 in presence of drug” value in the assay with DU145 cells (day 6) was “augmented”.
